# Marks after values point to notes of the source that are not given here.
# Columns and labels:
# GRHL-3^−/− mice = type: in vivo, mouse; settings: for Observed NTDs: GRHL-3^−/− embryos from GRHL-3^+/− intercrosses, given to pregnant females, embryos harvested E14.5; for Predicted NTDs: predicted from the response of ct/ct embryos; for Mean litter size / frequency of resorptions: mouse, in vivo
# Protocol: GRHL-3^+/− mice were inter-crossed and folate, inositol or PBS placebo was administered to pregnant females as previously described. Embryos were harvested on E14.5 and genotyped and examined morphologically. […] The results were analysed statistically by the one-sided binomial probability test. NTDs in the curly tail mice are resistant to folate administered in early gestation. […] The effects of folate and inositol administration on pregnant GRHL-3^+/− mice previously mated with GRHL-3^+/− males was examined (Table 6). As expected, no rescue of spina bifida in GRHL-3^−/− embryos with placebo or folate treatment was observed. […] Although the numbers of embryos examined was small, the result was highly significant (p<0.001) given the 70% reduction in the incidence of spina bifida in inositol-treated ct/ct embryos. These findings indicate that GRHL-3 expression is essential for inositol-mediated rescue of folate-resistant NTDs.
# curly tail (ct/ct) mice = settings: cited from earlier work
# [1] = tested on: five concatamerized GAL4 DNA binding sites upstream of the CAT gene in 293T cell line; assay: GAL4 DNA binding domain fusion / CAT reporter co-transfection; type: cell-based; settings: fused to GAL4 DNA binding domain, human 293T cell line
# Source text: Although significant sequence homology exists between grh and the shorter mgr isoforms and p70 mgr, the isoleucine rich transcriptional activation domain identified in the fly protein is not conserved. […] In view of the high degree of conservation of the first three coding exons of p70 mgr and bom, it was postulated that this could be the functional domain responsible for activation. To address this, the cDNA fragment encoding the first 93 amino acids of human p70 MGR (encoded by the first three exons) was subcloned in frame with the GAL4 DNA binding domain in a mammalian expression vector. […] These plasmids were co-transfected into the human 293T cell line with a reporter plasmid containing five concatamerized GAL4 DNA binding sites upstream of the chloramphenicol acetyltransferase (CAT) gene. The vector containing only the GAL4 DNA-BD or containing the VP16 activation domain fused to the GAL DNA-BD served as the negative and positive controls, respectively.
# Drosophila PCNA promoter = assay: EMSA with JEG-3 nuclear extract, PCNA promoter probe; type: binding; settings: anti-MGR antisera
# Source text: (§1) FIG. 2 is a photographic representation showing that p70 MGR binds to Drosophila gene regulatory sequences which bind grh. (A) p70 MGR binds to the Drosophila PCNA promoter. Nuclear extract from the JEG-3 cell line was studied in an EMSA with a PCNA promoter probe in the presence and absence of anti-MGR specific antisera. Antisera 611 was raised against peptides common to the p70 and p49 MGR proteins in the dimerization domain and antisera 67 was raised against unique peptides in the NH2-terminal domain of p70 MGR. The migration of the MGR complex is shown in arrows. (B) p70 MGR binds to the Drosophila dopo decarboxylase promoter. Experimental conditions were as described for (A).
# (§2) To determine the extent of the functional homology between GRH and MGR, it was initially examined whether the mammalian protein could bind to the well-characterized binding sites for the Drosophila factor in the Dopa decarboxylase and PCNA gene regulatory regions (Uv et al., Mol. Cell. Biol. 17: 6727-6735, 1997; Hayashi et al., J. Biol. Chem. 274: 35080-35088, 1999). Oligonucleotide probes encompassing these sites were incubated with nuclear extract from the human placental cell line JEG-3, which expresses both isoforms of MGR at RNA and protein level and analyzed in an electrophoretic mobility shift assay (EMSA). […]
# human En-1 promoter [2] = assay: EMSA competition with JEG-3 nuclear extract, En-1 promoter probe; type: binding; settings: cold En-1 probe competing with Ddc probe
# Source text: (§3) FIG. 3 are representations showing that p70 MGR binds to and transactivates the human En-1promoter. (A) Identifcation of a grh consensus DNA binding site in the human En-1promoter. The consensus sequence for grh DNA binding (SEQ ID NO: 50) compiled from an alignment of the Drosophila Ultrabithorax, Dopa decarboxylase and fushi tarazu promoters was compared with the sequence of the proximal human En-1 promoter (SEQ ID NO: 49) and the Drosophilaengrailed promoter (SEQ ID NO: 48). The closed bracket indicates the extend of the grainyhead binding site in the engrailed promoter as defined by DNAseI footprinting. (B) Human p70 MGR binds 5 to the human En-1 promoter. Nuclear extract from the JEG-3 cell line was studied in an EMSA with a Ddc promoter probe in the presence of pre-immune sera (lane 1), anti-MGR specific antisera (detailed in legend to FIG. 2) (lane 2) or cold competitor DNA (lanes 3-5). A 50-fold excess of the Ddc probe was used in lane 3 and a 10- and 20-fold excess of a human En-1promoter probe in lanes 4 and 5, respectively. The migration of the MGR/DNA complex is shown by arrows. (C) Human p70 MGR transactivates the En-1promoter. […]
# human En-1 promoter [3] = assay: En-1 promoter / luciferase reporter transfection in COS cells; type: cell-based; settings: p70 MGR expression vector vs empty vector, MGR null cell line COS
# Source text: as §3
# [4] = tested on: Drosophila dopa decarboxylase promoter; assay: EMSA with JEG-3 nuclear extract, Dopa decarboxylase promoter probe; type: binding; settings: anti-MGR antisera
# Source text: as §1, §2
Molecule,Observed NTDs (GRHL-3^−/− mice),Predicted NTDs (GRHL-3^−/− mice; GRHL-3^−/− embryos),Mean litter size (GRHL-3^−/− mice),frequency of resorptions (GRHL-3^−/− mice),transcriptional activation of the CAT gene [1],also measured
"Nc1nc2ncc(CNc3ccc(C(=O)N[C@@H](CCC(=O)O)C(=O)O)cc3)nc2c(=O)[nH]1 [Folate, folate]",100%,100%,did not differ significantly,did not differ significantly,,
"O[C@H]1[C@H](O)[C@@H](O)[C@H](O)[C@@H](O)[C@H]1O [Inositol, inositol]",100%*,30%,did not differ significantly,did not differ significantly,,"effect on NTDs / incidence of spina bifida (curly tail (ct/ct) mice; curly tail mice, administered in early gestation / pregnancy): marked reduction; reduction in the incidence of spina bifida (curly tail (ct/ct) mice; inositol-treated ct/ct embryos): 70%; rescue of spina bifida (incidence, severity) (GRHL-3^−/− mice; GRHL-3^−/− embryos, treatment of pregnant GRHL-3^+/− mice): neither the incidence, nor severity of the spina bifida in the GRHL-3^−/− embryos was alleviated"
VP16,,,,,transcriptional activation of the CAT gene was observed,
"p70 MGR: human mammalian Grainyhead isoform p70, SEQ ID NO:4; first 93 amino acids fused to GAL4 DNA binding domain in b240",,,,,transcriptional activation of the CAT gene was observed,binding to PCNA promoter probe (Drosophila PCNA promoter): binds; binding to En-1 promoter (human En-1 promoter [2]): binds; transcriptional activity of the En-1 promoter (human En-1 promoter [3]): dramatically enhanced; binding to dopa decarboxylase promoter probe [4]: binds
"bom: brother of mammalian grainyhead; region comparable to first 93 amino acids of p70 MGR fused to GAL4 DNA binding domain (protein, human) MSQESDNNKRLVALVPMPSDPPFNTRRAYTSEDEAWKSYLENPLTAATKAMMSINGDEDSAAALGLLYDYYKVPRDKRLLSVSKASDSQEDQEKRNCLGTSEAQSNLSGGENRVQVLKTVPVNLSLNQDHLENSKREQYSISFPESSAIIPVSGITVVKAEDFTPVFMAPPVHYPRGDGEEQRVVIFEQTQYDVPSLATHSAYLKDDQRSTPDSTYSESFKDAATEKFRSASVGAEEYMYDQTSSGTFQYTLEATKSLRQKQGEGPMTYLNKGQFYAITLSETGDNKCFRHPISKVRSVVMVVFSEDKNRDEQLKYWKYWHSRQHTAKQRVLDIADYKESFNTIGNIEEIAYNAVSFTWDVNEEAKIFITVNCLSTDFSSQKGVKGLPLMIQIDTYSYNNRSNKPIHRAYCQIKVFCDKGAERKIRDEERKQNRKKGKGQASQTQCNSSSDGKLAAIPLQKKSDITYFKTMPDLHSQPVLFIPDVHFANLQRTGQVYYNTDDEREGGSVLVKRMFRPMEEEFGPVPSKQMKEEGTKRVLLYVRKETDDVFDALMLKSPTVKGLMEAISEKYGLPVEKIAKLYKKSKKGILVNMDDNIIEHYSNEDTFILNMESMVEGFKVTLMEI",,,,,transcriptional activation of the CAT gene was observed,
"p49 mgr: human mammalian Grainyhead isoform p49, SEQ ID NO:2; full length fused to GAL4 DNA binding domain (protein, GAL4 DNA-binding domain fusion; human) MASLWESPQQCIILSPLSGWWFSIGISILTSSALVLKPQMLKGELQTRPSQRPSRKAFRRNNFEYTLEASKSLRQKPGDSTMTYLNKGQFYPITLKEVSSSEGIHHPISKVRSVIMVVFAEDKSREDQLRHWKYWHSRQHTAKQRCIDIADYKESFNTISNIEEIAYNAISFTWDINDEAKVFISVNCLSTDFSSQKGVKGLPLNIQVDTYSYNNRSNKPVHRAYCQIKVFCDKGAERKIRDEERKQSKRKVSDVKVPLLPSHKRMDITVFKPFIDLDTQPVLFIPDVHFANLQRGTHVLPIASEELEGEGSVLKRGPYGTEDDFAVPPSTKLARIEEPKRVLLYVRKESEEVFDALMLKTPSLKGLMEAISDKYDVPHDKIGKIFKKCKKGILVNMDDNIVKHYSNEDT",,,,,No activation was observed,
